Molecules are shown by their SMILES.

The assay addresses Heat shock 70 kDa protein 1A (Homo sapiens) (UniProt P0DMV8). The assay is described as follows: PubChem AID 651948. The note with it: HeLa Hsp70 protein level, western blot, 8 h; at 10 µM; hits give high values. On the technique in general: A western blot detects proteins with antibodies after separation by electrophoresis.

Sequence of Heat shock 70 kDa protein 1A (Homo sapiens) (P0DMV8 whole entry, looked up): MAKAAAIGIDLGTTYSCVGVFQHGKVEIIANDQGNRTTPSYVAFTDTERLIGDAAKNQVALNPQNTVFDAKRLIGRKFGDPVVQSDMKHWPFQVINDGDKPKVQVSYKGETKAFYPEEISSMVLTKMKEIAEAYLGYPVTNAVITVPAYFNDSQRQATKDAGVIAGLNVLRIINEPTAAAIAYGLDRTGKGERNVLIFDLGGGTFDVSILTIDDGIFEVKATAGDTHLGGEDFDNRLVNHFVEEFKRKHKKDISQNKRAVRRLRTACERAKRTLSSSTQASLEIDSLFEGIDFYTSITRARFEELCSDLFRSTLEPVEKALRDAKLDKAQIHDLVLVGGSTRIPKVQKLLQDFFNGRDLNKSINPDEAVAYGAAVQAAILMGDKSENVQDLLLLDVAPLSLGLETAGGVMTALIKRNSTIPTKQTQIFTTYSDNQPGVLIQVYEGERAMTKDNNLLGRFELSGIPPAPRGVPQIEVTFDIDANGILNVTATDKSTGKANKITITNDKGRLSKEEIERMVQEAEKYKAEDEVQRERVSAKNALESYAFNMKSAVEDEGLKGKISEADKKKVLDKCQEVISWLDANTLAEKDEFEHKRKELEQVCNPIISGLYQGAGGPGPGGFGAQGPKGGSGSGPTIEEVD

The term fold induction denotes the signal under treatment as a multiple of the control signal. Turning to `COc1ccc(/C=C/C=C2C(=O)NC(=O)NC2=O)cc1`, the fold induction is 1.8.
